Results taken from paper PMC8234462, “Novel Cyclophilin Inhibitor Decreases Cell Proliferation and Tumor Growth in Models of Hepatocellular Carcinoma” (Cancers, 2021).
Blank lines part the entries; values can stand above or below the molecule they belong to.

Experiments:
Bone marrow progenitors = assay: Cytotoxicity, colony formation; type: cell-based, human; settings: 14 days of treatment, colonies counted
Protocol: The evaluation of the off-target effects of NV651 was performed by ImQuest BioSciences Inc. (Frederick, MD, USA) by analyzing the cytotoxicity in a panel of primary cells. NV651 was evaluated at a concentration of 30 µM and five serial half-logarithmic dilutions in triplicate. The positive control compounds for each cell type were purchased from Sigma-Aldrich (St. Louis, MO, USA) and were as follows: Unstimulated human peripheral blood mononuclear cells (PBMCs), phytohemagglutinin (PHA)-stimulated PBMCs, monocytes/macrophages, dendritic cells, hepatocytes, induced pluripotent stem cell (iPS) neurons: […] AZT, kidney cells (RPTEC): cisplatin and iPS cardiomyocytes: Doxazosin. Bone marrow progenitor cells (Invitrogen, Waltham, MA, USA) were suspended in cell culture medium (Iscove-modified Dulbecco medium) containing 15% FBS, 10% giant tumor-conditioned medium (Bone Marrow Plus, Sigma-Aldrich, St. […] Cells (1 × 10^5 cells/well) were seeded in 6-well plates containing NV651 in triplicate. Cells were incubated for 14 days, and colonies (more than 30 cells) were counted.

CypB = CypB (Homo sapiens, UniProt P23284); assay: PPIase activity assay (chymotrypsin-coupled); type: biochemical
Protocol: (§1) The PPIase activity of CypA, CypB, CypD and Cyp40 was determined by following the rate of hydrolysis of N-succinyl-Ala-Ala-Pro-Phe-p-nitroanilide by chymotrypsin, a digestive enzyme that only hydrolyzes the trans form of the peptide. Therefore, the hydrolysis of the cis form, the concentration of which is maximized by using a stock dissolved in trifluoroethanol containing 470-mM LiCl, is only possible with the isomerization from the cis to the trans form. […] The reaction was started with the peptide addition, and the change in absorbance was monitored spectrophotometrically at a 6-s interval for 6 min. The blank rates of hydrolysis (in the absence of Cyps) were subtracted from the rates in the presence of Cyps. The initial rates of the enzymatic reaction were analyzed by a first-order regression analysis of the time course of the change in absorbance.

CypD = CypD (Homo sapiens, UniProt P30405); assay: PPIase activity assay (chymotrypsin-coupled); type: biochemical; settings: free-cell assay; Cyp equilibrated 1 h at 5 °C with inhibitor; read-out: absolute IC50, PPIase activity CypD
Protocol: as §1

Cyp40 = Cyp40 (Homo sapiens, UniProt Q08752); assay: PPIase activity assay (chymotrypsin-coupled); type: biochemical; settings: free-cell assay; Cyp equilibrated 1 h at 5 °C with inhibitor; read-out: absolute IC50, PPIase activity Cyp40
Protocol: as §1

LIXC-003 = assay: Cell proliferation assay: Acumen; type: cell-based; settings: Homo sapiens, 168 h, 7 days, read-out: Abs IC50 growth inhibition
Protocol: (§2) Compound screening and comparison of the antiproliferative effect of NV651 and sorafenib were performed by Shanghai ChemPartner Co., Ltd. (Shanghai, China). Cells were seeded in a 96-well plate at the following concentrations: LIXC-003 400 cells/well, LIXC-004 1000 cells/well, LIXC-086 5000 cells/well, LIXC-066 1250 cells/well, LIXC-012 2000 cells/well, LIXC-006 1250 cells/well, HEPG2 1000 cells/well, HUH7 2000 cells/well and Hep3B2.1-7-Luc 1000 cells/well. Cells were treated with either sorafenib or NV651 at 0.004, 0.011, 0.034, 0.103, 0.309, 0.926, 2.778, 8.333, 25 µM or an equivalent volume with DMSO.
(§3) After 7 days, cells were trypsinized and collected. Fifty microliters of cell suspension were added to 50 µL of 2-µM Calcein AM (Invitrogen, Cat# C3099, Waltham, MA, USA) diluted in HBSS and placed in a black-walled 96-well plate. The plate was left for 30 min at room temperature, followed by a scan with Acumen eX3.
(§4) Growth inhibition for direct cell counting (%) by Acumen was calculated as:(1) 100−100∗Experimental count−Blank/DMSO count −Blank

HUH7 = assay: Cell proliferation assay: Acumen; type: cell-based; settings: Homo sapiens, Huh-7, 168 h, 7 days, read-out: Abs IC50 growth inhibition
Protocol: as §2, §3, §4

LIXC-004 = assay: Cell proliferation assay: Acumen; type: cell-based; settings: Homo sapiens, 168 h, 7 days, read-out: Abs IC50 growth inhibition
Protocol: as §2, §3, §4

HEPG2 = assay: Cell proliferation assay: Acumen; type: cell-based; settings: Homo sapiens, 168 h, 7 days, read-out: Abs IC50 growth inhibition
Protocol: as §2, §3, §4

LIXC-006 = assay: Cell proliferation assay: Acumen; type: cell-based; settings: Homo sapiens, 168 h, 7 days, read-out: Abs IC50 growth inhibition
Protocol: as §2, §3, §4

LIXC-012 = assay: Cell proliferation assay: Acumen; type: cell-based; settings: Homo sapiens, 168 h, 7 days, read-out: Abs IC50 growth inhibition
Protocol: as §2, §3, §4

LIXC-086 = assay: Cell proliferation assay: Acumen; type: cell-based; settings: Homo sapiens, 168 h, 7 days, read-out: Abs IC50 growth inhibition
Protocol: as §2, §3, §4

HEP3B2.1-7-Luc = assay: Cell proliferation assay: Acumen; type: cell-based; settings: Homo sapiens, 168 h, 7 days, read-out: Abs IC50 growth inhibition
Protocol: as §2, §3, §4

LIXC-066 = assay: Cell proliferation assay: Acumen; type: cell-based; settings: Homo sapiens, 168 h, 7 days, read-out: Abs IC50 growth inhibition
Protocol: as §2, §3, §4

Dendritic cells = assay: Cytotoxicity, CellTiter Glo; type: cell-based; settings: Homo sapiens, Dendritic cell, 168 h, 7 days of treatment, read-out: IC50 (50% reduction in cell viability)
Protocol: The evaluation of the off-target effects of NV651 was performed by ImQuest BioSciences Inc. (Frederick, MD, USA) by analyzing the cytotoxicity in a panel of primary cells. NV651 was evaluated at a concentration of 30 µM and five serial half-logarithmic dilutions in triplicate. The positive control compounds for each cell type were purchased from Sigma-Aldrich (St. Louis, MO, USA) and were as follows: Unstimulated human peripheral blood mononuclear cells (PBMCs), phytohemagglutinin (PHA)-stimulated PBMCs, monocytes/macrophages, dendritic cells, hepatocytes, induced pluripotent stem cell (iPS) neurons: […] AZT, kidney cells (RPTEC): cisplatin and iPS cardiomyocytes: Doxazosin. The isolation was based on Nair, Archer. Briefly, freshly separated PBMCs from one donor were suspended in DPBS at 4 × 10^6 cells per mL and cultured in a T-75 flask. Cells were incubated for 30 min and then washed 5–7 times with DPBS to remove nonadherent cells. Cells were cultured in RPMI 1640 supplemented with 10% FBS, 2-mM L-glutamine, 25-mM HEPES, […], 100-µg/mL streptomycin, 50-ng/mL rhGM-CSF and 50-ng/mL rhIL-4 and incubated for 7 days. After the incubation period, cells were cultured in the same media with the addition of LPS (10 ng/mL) for two days. […]

RPTECs = assay: Cytotoxicity, CellTiter Glo; type: cell-based, human; settings: 3 days of treatment, read-out: IC50 (50% reduction in cell viability)
Protocol: The evaluation of the off-target effects of NV651 was performed by ImQuest BioSciences Inc. (Frederick, MD, USA) by analyzing the cytotoxicity in a panel of primary cells. NV651 was evaluated at a concentration of 30 µM and five serial half-logarithmic dilutions in triplicate. The positive control compounds for each cell type were purchased from Sigma-Aldrich (St. Louis, MO, USA) and were as follows: Unstimulated human peripheral blood mononuclear cells (PBMCs), phytohemagglutinin (PHA)-stimulated PBMCs, monocytes/macrophages, dendritic cells, hepatocytes, induced pluripotent stem cell (iPS) neurons: […] AZT, kidney cells (RPTEC): cisplatin and iPS cardiomyocytes: Doxazosin. Human primary renal proximal tubule cells (hRPTEC, Lonza, Basel, Switzerland) were cultured at 1 × 10^4 cells/well in supplemented REGM medium (Lonza, Basel, Switzerland). Following overnight incubation for adherence, cells were treated with NV651 in triplicate. After a 3-day treatment, CellTiter Glo (Promega, Madison, WI, USA) was used. CellTiter Glo was performed to evaluate cell viability. CellTiter Glo Luminescent Cell Viability Assay (Promega, Madison, WI, USA) was performed according to the manufacturer’s instructions.

iPS cardiomyocytes = assay: Cytotoxicity, CellTiter Glo; type: cell-based; settings: Homo sapiens, Cardiomyocyte, 72 h, 3 days of treatment, read-out: IC50 (50% reduction in cell viability)
Protocol: The evaluation of the off-target effects of NV651 was performed by ImQuest BioSciences Inc. (Frederick, MD, USA) by analyzing the cytotoxicity in a panel of primary cells. NV651 was evaluated at a concentration of 30 µM and five serial half-logarithmic dilutions in triplicate. The positive control compounds for each cell type were purchased from Sigma-Aldrich (St. Louis, MO, USA) and were as follows: Unstimulated human peripheral blood mononuclear cells (PBMCs), phytohemagglutinin (PHA)-stimulated PBMCs, monocytes/macrophages, dendritic cells, hepatocytes, induced pluripotent stem cell (iPS) neurons: […] AZT, kidney cells (RPTEC): cisplatin and iPS cardiomyocytes: Doxazosin. iPS cardiomyocytes (Cellular Dynamics, Madison, WI, USA) were seeded in a 96-well plate precoated with 0.1% gelatin (Sigma-Aldrich, St. Louis, MO, USA) in a plating medium (Cellular dynamics, Madison, WI, USA) at a concentration of 1.5 × 10^4 cells/well. After 48 h of incubation, cells were washed, and NV651 diluted in the maintenance medium (Cellular Dynamics, Madison, WI, USA) was added. After 3 days of incubation, cell viability was measured with CellTiter Glo (Promega, Madison, WI, USA). CellTiter Glo was performed to evaluate cell viability. CellTiter Glo Luminescent Cell Viability Assay (Promega, Madison, WI, USA) was performed according to the manufacturer’s instructions.

CypD, sequence (P30405 30-207): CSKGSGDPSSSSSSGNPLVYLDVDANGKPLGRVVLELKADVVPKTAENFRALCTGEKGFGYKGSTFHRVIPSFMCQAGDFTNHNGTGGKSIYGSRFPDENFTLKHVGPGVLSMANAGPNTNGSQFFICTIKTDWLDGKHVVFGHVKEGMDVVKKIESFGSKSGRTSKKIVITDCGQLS
Cyp40, sequence (Q08752 whole entry): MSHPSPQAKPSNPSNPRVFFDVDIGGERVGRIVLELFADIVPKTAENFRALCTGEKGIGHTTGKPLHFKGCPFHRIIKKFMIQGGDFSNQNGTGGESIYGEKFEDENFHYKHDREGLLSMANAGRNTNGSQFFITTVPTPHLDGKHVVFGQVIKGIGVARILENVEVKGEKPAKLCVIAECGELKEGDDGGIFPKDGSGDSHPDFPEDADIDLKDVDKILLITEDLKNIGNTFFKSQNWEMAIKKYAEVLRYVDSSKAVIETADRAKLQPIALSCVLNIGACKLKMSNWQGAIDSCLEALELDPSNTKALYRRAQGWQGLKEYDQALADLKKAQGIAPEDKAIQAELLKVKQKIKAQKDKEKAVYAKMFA
CypB, sequence (P23284 34-216): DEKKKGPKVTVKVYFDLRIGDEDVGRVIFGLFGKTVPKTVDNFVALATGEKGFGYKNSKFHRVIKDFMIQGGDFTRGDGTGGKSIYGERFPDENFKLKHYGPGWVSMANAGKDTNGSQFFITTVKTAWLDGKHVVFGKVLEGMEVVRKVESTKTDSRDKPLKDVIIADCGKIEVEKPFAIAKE

SMILES: Cc1cn([C@H]2C[C@H](N=[N+]=[N-])[C@@H](CO)O2)c(=O)[nH]c1=O [AZT, reference compound]
IC50 (Bone marrow progenitors): 0.89 µM

IC50 (CypB): 0.00512 µM
IC50 (CypD): 0.00525 µM
IC50 (Cyp40): 0.00562 µM
SMILES: CC[C@H]1C[C@H](C)[C@@]2(NC1=O)O[C@@H](C[C@H](O)[C@@H](C)CC/C=C/C=C(\C)[C@@H]1C/C=C/C=C/[C@H](O)[C@H](C)[C@@H](O)[C@@H](CCC(C)=O)C(=O)N[C@@H](C(C)C)C(=O)N[C@@H](Cc3cccc(O)c3)C(=O)N3CCC[C@H](N3)C(=O)O1)[C@H](C)[C@H](O)[C@@H]2C [SfA, Sanglifehrin A, reference compound]

IC50 (HUH7): 0.739 µM
IC50 (HEPG2): 2.33 µM
IC50 (HEP3B2.1-7-Luc): 3.9 µM
SMILES: CNC(=O)c1cc(Oc2ccc(NC(=O)Nc3ccc(Cl)c(C(F)(F)F)c3)cc2)ccn1 [Sorafenib, reference compound]
IC50 (LIXC-003): 0.003 µM
IC50 (LIXC-004): 1.45 µM
IC50 (LIXC-006): 3.35 µM
IC50 (LIXC-012): 1.25 µM
IC50 (LIXC-086): 1.9 µM
IC50 (LIXC-066): 1.65 µM

SMILES: CN[C@@H]1C[C@H]2O[C@@](C)([C@@H]1OC)n1c3ccccc3c3c4c(c5c6ccccc6n2c5c31)C(=O)NC4 [Staurosporine, reference compound]
IC50 (Dendritic cells): 0.009 µM

SMILES: N.N.[Cl][Pt][Cl] [cisplatin, reference compound]
IC50 (RPTECs): 0.009 µM

SMILES: COc1cc2nc(N3CCN(C(=O)C4COc5ccccc5O4)CC3)nc(N)c2cc1OC (stereo not shown) [doxazosin, reference compound]
IC50 (iPS cardiomyocytes): 39.8 µM
